biological target: T1, GABAB receptor (GABABR1a/GABABR2 heterodimer) (Homo sapiens, UniProt O75899+Q9UBS5); assay: [35S]-GTPγS binding assay, potency of PAM (GABA dose-response curves with and without test compound); format: biochemical; conditions: potency of the positive allosteric modulator; GABA dose-response in presence of test compound
T1 construct: expressed in transfected cells
Text: GABABR1a and GABABR2 were cloned from human brain cDNA and subcloned into pCI-Neo (Promega) and pALTER-1 (Promega), respectively. A GABABR1a-Gαqi5 fusion protein expression vector was constructed using the pCI-Neo-GABABR1a cDNA plasmid and pLEC1-Gαqi5 (Molecular Devices, CA). In order to make the Gαqi5 pertussis toxin insensitive, Cys356 was mutated to Gly using standard PCR methodology with the primers 5′-[…]-3′ (forward) and 5′-GCGGCCG […]-3′ (reverse). The Gαqi5mut cDNA was ligated into the BamHI and NotI sites of pcDNA3.0 (Invitrogen). The GABAB R1a coding sequence was amplified by PCR from pCI-Neo-GABABR1a using the primers, 5′-[…]-3′ (forward) and 5′-[…]-3′ (reverse) and subcloned into the BamHI site of pcDNA3.0-Gαqi5mut.
For generation of a cell line expressing the GABABR1a/GABABR2 heterodimer, GABABR1a plasmid DNA (4 μg) GABABR2 plasmid DNA (4 μg) and lipofectamine (24 μl) were mixed in 5 ml OptiMEM and incubated for 45 minutes at room temperature. The cells were exposed to the transfection medium for 5 hours, which then was replaced with culture medium. The cells were cultured for an additional 10 days before selection agents (300 μg/ml hygromycin and 400 μg/ml geneticin) were added. Twenty-four days after transfection, single cell sorting into 96-well plates by flow cytometry was performed using a FACS Vantage SE (Becton Dickinson, Palo Alto, Calif.). After expansion, the GABAB receptor functional response was tested using the FLIPR assay described below. The clone with the highest functional response was collected, expanded and then subcloned by single cell sorting. The clonal cell line with the highest peak response in the FLIPR was used in the present study.
For generation of a stable cell line expressing GABABR1a-Gαqi5 fusion protein and GABABR2, GABABR1a-Gαqi5mut plasmid DNA (8 μg) GABABR2 plasmid DNA (8 μg) and lipofectamine (24 μl) were mixed in 5 ml OptiMEM and incubated for 45 minutes at room temperature. The cells were exposed to the transfection medium for 5 hours, which then was replaced with culture medium. After forty-eight hours, the cells were detached and seeded in 6 well plates (2000 cells/well) and grown in culture medium supplemented with geneticin (400 μg/ml) and zeocin (250 μg/ml). After 4 days, cells from single colonies were collected and transferred to a 24-well plate. After 10 days, the cell clones were seeded in T-25 flasks and grown for another 16 days before they were tested for GABAB receptor mediated functional response. […] The clonal cell line that gave the highest peak response in the FLIPR was used in the present study.
[^35S]-GTPγS binding assays were performed at 30° C. for 45 min in membrane buffer (100 mM NaCl, 5 mM MgCl2, 1 mM EDTA, 50 mM HEPES, pH 7.4) containing 0.025 μg/μl of membrane protein (prepared from the cell lines described above) with 0.01% bovine serum albumin (fatty acid free), 10 μM GDP, 10 μM DTT and 0.53 nM [^35S]-GTPγS (Amersham-Pharmacia Biotech) in a final volume of 200 μl. Non-specific binding was determined in the presence of 20 μM GTPγS. The reaction was started by the addition of GABA at concentration between 1 mM and 0.1 nM in the presence or absence of the required concentration of PAM. The reaction was terminated by addition of ice-cold wash buffer (50 mM Tris-HCl, 5 mM MgCl2, 50 mM NaCl, pH 7.4) followed by rapid filtration under vacuum through Printed Filtermat A glass fiber filters (Wallac) (0.05% PEI treated) using a Micro 96 Harvester (Skatron Instruments). The filters were dried for 30 min at 50° C., then a paraffin scintillant pad was melted onto the filters and the bound radioactivity was determined using a 1450 Microbeta Trilux (Wallac) scintillation counter.
GABA dose-response curves in the presence and absence of test compounds were constructed using the 4-parameter logistic equation, y=ymax+((ymin−ymax)/1+(x/C)^D), where C=EC50 and D=slope factor.

T1 sequence (Q9UBS5 15-961 limits assumed): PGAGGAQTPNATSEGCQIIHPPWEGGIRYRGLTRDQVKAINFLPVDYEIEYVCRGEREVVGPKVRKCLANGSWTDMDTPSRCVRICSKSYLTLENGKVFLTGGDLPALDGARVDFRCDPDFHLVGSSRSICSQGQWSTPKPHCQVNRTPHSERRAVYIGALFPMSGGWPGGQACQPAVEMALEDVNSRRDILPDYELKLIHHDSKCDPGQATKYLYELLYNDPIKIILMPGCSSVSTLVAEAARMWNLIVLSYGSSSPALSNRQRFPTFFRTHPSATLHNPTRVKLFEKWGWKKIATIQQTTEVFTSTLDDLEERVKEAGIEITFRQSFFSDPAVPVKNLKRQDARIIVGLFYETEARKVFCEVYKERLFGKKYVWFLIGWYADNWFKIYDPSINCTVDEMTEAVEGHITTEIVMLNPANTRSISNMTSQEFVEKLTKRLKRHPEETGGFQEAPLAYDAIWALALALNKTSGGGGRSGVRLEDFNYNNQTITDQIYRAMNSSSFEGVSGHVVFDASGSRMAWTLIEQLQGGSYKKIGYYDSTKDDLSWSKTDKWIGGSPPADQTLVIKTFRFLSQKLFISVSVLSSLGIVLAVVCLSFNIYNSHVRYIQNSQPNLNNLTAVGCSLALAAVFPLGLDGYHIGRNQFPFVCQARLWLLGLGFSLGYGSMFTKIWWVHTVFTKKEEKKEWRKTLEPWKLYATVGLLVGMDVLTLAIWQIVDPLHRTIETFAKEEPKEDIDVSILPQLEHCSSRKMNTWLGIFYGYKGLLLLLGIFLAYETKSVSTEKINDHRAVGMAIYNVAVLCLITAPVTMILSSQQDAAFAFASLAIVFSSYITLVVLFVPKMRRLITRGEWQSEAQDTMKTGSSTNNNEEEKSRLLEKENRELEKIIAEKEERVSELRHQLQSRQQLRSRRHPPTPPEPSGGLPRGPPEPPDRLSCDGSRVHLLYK
T1 sequence (O75899 42-941): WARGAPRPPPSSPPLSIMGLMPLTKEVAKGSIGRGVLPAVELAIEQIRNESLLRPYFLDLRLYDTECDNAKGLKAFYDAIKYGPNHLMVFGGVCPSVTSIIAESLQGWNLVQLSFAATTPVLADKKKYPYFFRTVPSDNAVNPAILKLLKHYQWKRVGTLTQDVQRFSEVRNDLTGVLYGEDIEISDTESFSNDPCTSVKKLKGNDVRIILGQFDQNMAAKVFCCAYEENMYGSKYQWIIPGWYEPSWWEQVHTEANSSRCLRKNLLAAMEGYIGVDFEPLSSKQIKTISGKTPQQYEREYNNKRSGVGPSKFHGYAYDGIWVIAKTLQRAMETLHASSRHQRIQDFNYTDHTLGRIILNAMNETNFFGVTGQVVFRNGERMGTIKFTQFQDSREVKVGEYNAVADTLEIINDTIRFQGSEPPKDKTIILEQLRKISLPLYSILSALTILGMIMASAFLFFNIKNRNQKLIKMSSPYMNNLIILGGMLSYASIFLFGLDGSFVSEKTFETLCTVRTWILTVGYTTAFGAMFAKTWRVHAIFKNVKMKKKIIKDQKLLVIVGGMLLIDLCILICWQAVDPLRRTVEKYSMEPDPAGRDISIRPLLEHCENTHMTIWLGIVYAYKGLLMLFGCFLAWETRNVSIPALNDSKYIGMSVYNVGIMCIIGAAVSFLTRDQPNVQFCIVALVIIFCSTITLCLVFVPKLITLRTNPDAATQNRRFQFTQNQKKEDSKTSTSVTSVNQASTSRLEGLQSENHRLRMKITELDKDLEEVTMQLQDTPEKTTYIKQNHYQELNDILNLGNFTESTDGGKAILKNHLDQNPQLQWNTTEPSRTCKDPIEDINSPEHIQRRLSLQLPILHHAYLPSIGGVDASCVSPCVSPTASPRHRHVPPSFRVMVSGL

Structure (SMILES)	EC50
CCCn1c(=O)n(Cc2ccc(Cl)cc2)c(=O)c2c1nc(N1CCN(C)CC1)n2C [Example 87, 1-(4-chlorobenzyl)-7-methyl-8-(4-methylpiperazin-1-yl)-3-propyl-3,7-dihydro-1H-purine-2,6-dione]	15.6 µM
CCCn1c(=O)n(Cc2ccc(Cl)cc2)c(=O)c2c1nc(N1CCC1)n2C [Example 83, 8-azetidin-1-yl-1-(4-chlorobenzyl)-7-methyl-3-propyl-3,7-dihydro-1H-purine-2,6-dione]	7.8 µM
CCCn1c(=O)n(Cc2ccc(Cl)cc2)c(=O)c2c1nc(N1CCC[C@H]1COC)n2C [Example 93, 1-(4-chlorobenzyl)-8-[(2S)-2-(methoxymethyl)pyrrolidin-1-yl]-7-methyl-3-propyl-3,7-dihydro-1H-purine-2,6-dione]	7.2 µM
CCc1nc2c(c(=O)n(Cc3ccc(Cl)cc3)c(=O)n2CCCN2CCC3(CC2)OCCO3)n1C [Example 48, 1-(4-Chlorobenzyl)-3-[3-(1,4-dioxa-8-azaspiro[4.5]dec-8-yl)propyl]-8-ethyl-7-methyl-3,7-dihydro-1H-purine-2,6-dione]	12.1 µM
CCCn1c(=O)n(Cc2ccc(Cl)cc2)c(=O)c2c1nc(N(CC)CC)n2C [Example 89, 1-(4-chlorobenzyl)-8-(diethylamino)-7-methyl-3-propyl-3,7-dihydro-1H-purine-2,6-dione]	1.8 µM
CCCn1c(=O)n(Cc2ccc(Cl)cc2)c(=O)c2c1nc(N1CCOCC1)n2C [Example 92, 1-(4-chlorobenzyl)-7-methyl-8-morpholin-4-yl-3-propyl-3,7-dihydro-1H-purine-2,6-dione]	7.1 µM
CCc1nc2c(c(=O)n(Cc3ccc(Cl)cc3)c(=O)n2CCCOC(C)(C)C)n1C [Example 21, 3-(3-tert-butoxypropyl)-1-(4-chlorobenzyl)-8-ethyl-7-methyl-3,7-dihydro-1H-purine-2,6-dione]	7.2 µM
CCc1nc2c(c(=O)n(Cc3ccc(Cl)cc3)c(=O)n2CC(=O)C(C)(C)C)n1C [Example 4, 1-(4-Chlorobenzyl)-3-(3,3-dimethyl-2-oxobutyl)-8-ethyl-7-methyl-3,7-dihydro-1H-purine-2,6-dione]	1.6 µM
CCCn1c(=O)n(Cc2ccc(Cl)cc2)c(=O)c2c1nc(N(C)C)n2C [Example 82, 1-(4-chlorobenzyl)-8-(dimethylamino)-7-methyl-3-propyl-3,7-dihydro-1H-purine-2,6-dione]	5.6 µM
CCc1nc2c(c(=O)n(Cc3ccc(Cl)cc3)c(=O)n2Cc2ccc(OC(F)F)cc2)n1C [Example 19, 1-(4-Chlorobenzyl)-3-[4-(difluoromethoxy)benzyl]-8-ethyl-7-methyl-3,7-dihydro-1H-purine-2,6-dione]	3.7 µM
CCc1nc2c(c(=O)n(Cc3ccc(Cl)cc3)c(=O)n2CCCO)n1C [Example 38, 1-(4-chlorobenzyl)-8-ethyl-3-(3-hydroxypropyl)-7-methyl-3,7-dihydro-1H-purine-2,6-dione]	6.8 µM
CCc1nc2c(c(=O)n(Cc3ccc(Cl)c(Cl)c3)c(=O)n2CC[Si](C)(C)C)n1C [Example 43, 1-(3,4-Dichlorobenzyl)-8-ethyl-7-methyl-3-[2-(trimethylsilyl)ethyl]-3,7-dihydro-1H-purine-2,6-dione]	2.7 µM
CCc1nc2c(c(=O)n(Cc3ccc(Cl)cc3)c(=O)n2CC(OC)OC)n1C [Example 52, 1-(4-chlorobenzyl)-3-(2,2-dimethoxyethyl)-8-ethyl-7-methyl-3,7-dihydro-1H-purine-2,6-dione]	8.8 µM
CCCn1c(=O)n(Cc2ccc(Cl)cc2)c(=O)c2c1nc(CC)n2-c1ccc(F)cc1 [Example 74, 1-(4-Chlorobenzyl)-8-ethyl-7-(4-fluorophenyl)-3-propyl-3,7-dihydro-1H-purine-2,6-dione]	9.9 µM
CCc1nc2c(c(=O)n(Cc3ccc(Cl)cc3)c(=O)n2Cc2ccc(SC(F)(F)F)cc2)n1C [Example 25, 1-(4-chlorobenzyl)-8-ethyl-7-methyl-3-{4-[(trifluoromethyl)thio]benzyl}-3,7-dihydro-1H-purine-2,6-dione]	5.3 µM
CCc1nc2c(c(=O)n(Cc3ccc(Cl)cc3)c(=O)n2C[Si](C)(C)C)n1C [Example 9, 1-(4-Chlorobenzyl)-8-ethyl-7-methyl-3-[(trimethylsilyl)methyl]-3,7-dihydro-1H-purine-2,6-dione]	2.1 µM
CCc1nc2c(c(=O)n(Cc3ccc(Cl)cc3)c(=O)n2CCCn2ccnc2)n1C [Example 49, 1-(4-Chlorobenzyl)-8-ethyl-3-[3-(1H-imidazol-1-yl)propyl]-7-methyl-3,7-dihydro-1H-purine-2,6-dione]	13.4 µM

Further compounds by falling EC50, results first:

EC50	Structure (SMILES)
17.3 µM	CCCn1c(=O)n(Cc2nc3cc(C(F)(F)F)ccc3s2)c(=O)c2c1nc(CC)n2C [Example 66, 8-Ethyl-7-methyl-3-propyl-1-{[5-(trifluoromethyl)-1,3-benzothiazol-2-yl]methyl}-3,7-dihydro-1H-purine-2,6-dione]
15 µM	CCCn1c(=O)n(Cc2ccc(OCc3ccccc3)cc2)c(=O)c2c1nc(CC)n2C [Example 56, 1-[4-(Benzyloxy)benzyl]-8-ethyl-7-methyl-3-propyl-3,7-dihydro-1H-purine-2,6-dione]
14.5 µM	CCCn1c(=O)n(Cc2ccc(F)cc2)c(=O)c2c1nc(OC)n2C [Example 79, 1-(4-Fluorobenzyl)-8-methoxy-7-methyl-3-propyl-3,7-dihydro-1H-purine-2,6-dione]
7.9 µM	CCc1nc2c(c(=O)n(Cc3ccc(Cl)cc3)c(=O)n2CC(=O)c2ccncc2)n1C [Example 7, 1-(4-Chlorobenzyl)-8-ethyl-7-methyl-3-(2-oxo-2-pyridin-4-ylethyl)-3,7-dihydro-1H-purine-2,6-dione]
6.64 µM	CCn1c(=O)n(Cc2ccc(Cl)cc2)c(=O)c2c1nc(OC)n2-c1ccc(F)cc1 [Example 77, 1-(4-chlorobenzyl)-3-ethyl-7-(4-fluorophenyl)-8-methoxy-3,7-dihydro-1H-purine-2,6-dione]
5.89 µM	CCCn1c(=O)n(Cc2ccc(Cl)cc2)c(=O)c2c1nc(CC)n2C [Example 54, 1-(4-chlorobenzyl)-8-ethyl-7-methyl-3-propyl-3,7-dihydro-1H-purine-2,6-dione]
5.2 µM	COc1nc2c(c(=O)n(Cc3ccc(Cl)cc3)c(=O)n2CCC(F)(F)F)n1C [Example 80, 1-(4-chlorobenzyl)-8-methoxy-7-methyl-3-(3,3,3-trifluoropropyl)-3,7-dihydro-1H-purine-2,6-dione]
4.9 µM	CCc1nc2c(c(=O)n(Cc3ccc(Cl)cc3)c(=O)n2CCCC(F)(F)F)n1C [Example 76]
4.6 µM	CCc1nc2c(c(=O)n(Cc3ccc(Cl)cc3)c(=O)n2Cc2c(-c3ccccc3)noc2C)n1C [Example 30, 1-(4-chlorobenzyl)-8-ethyl-7-methyl-3-[(5-methyl-3-phenylisoxazol-4-yl)methyl]-3,7-dihydro-1H-purine-2,6-dione]
3.6 µM	CCCn1c(=O)n(Cc2ccc(Cl)cc2)c(=O)c2c1nc(N1CCCC1)n2C [Example 86, 1-(4-chlorobenzyl)-7-methyl-3-propyl-8-pyrrolidin-1-yl-3,7-dihydro-1H-purine-2,6-dione]
2.1 µM	CCc1nc2c(c(=O)n(Cc3ccc(Cl)cc3)c(=O)n2CC(O)C(F)(F)F)n1C (stereo not shown) [Example 23, 1-(4-chlorobenzyl)-8-ethyl-7-methyl-3-(3,3,3-trifluoro-2-hydroxypropyl)-3,7-dihydro-1H-purine-2,6-dione]

From US20090023704A1, “Novel Compounds 737” (ASTRAZENECA AB, priority 2007, published 2009)
